Test results from US20260007715A1, “WOUND CARE DEVICE” (priority 2019, published 2026).
Entries after “also recorded” stand apart in the source; their conditions may differ. Where no end group is shown, it is not given here.

Key:
Horse blood = assay: Blood coagulation on hydrogel samples with different peptides, whole horse blood test (Experiment 3); type: cell-based; details: citrated horse blood recalcified, 60 min at 37° C., washed three times with PBS, duplicate
Protocol: Hydrogels were functionalized with 4 different types of antimicrobial peptides (AMPs). The AMPs used were PGLa, LL-37, Temporin B and RRP9W4. As control hydrogels without any attached AMPs were used.
Fresh citrated Horse blood was purchased from Håtunalab AB, Sweden and used to show how if presence of AMPs can induce clotting. In an Eppendorf tube, 1 ml of blood with 0.1 ml of 250 Mm calcium chloride (to reverse the citrate anticoagulant) was added and mixed.
Samples were placed in 24 well plate and conditioned by adding 1 ml PBS to the hydrogels. After 15 minutes the samples were transferred to the Eppendorf tubes containing the blood. The tubes were then placed on shaker and incubated for 60 min at 37° C.
As blank controls, 1 ml of blood was added to an Eppendorf tube without any hydrogels and treated with the same conditions. […] Samples were run in duplicate.

plasmatic coagulation = details: literature, Int. J. Mol. Sci. 2019, 20, 5426; cited from earlier work

Substance | Observations (clot on hydrogel) (Horse blood) | effect on plasmatic coagulation (plasmatic coagulation)
RRPRPRPRPWWWW-NH2 [RRP9W4, PRELP derived antimicrobial peptide] | large visible clot; also recorded: surprising clotting effect; also recorded: Big clot with firm attachment onto the surface | –
LL-37: human cathelicidin derived LL-37 peptide (LLGDFFRKSKEKIGKEFKRIVQRIKDFLRNLVPRTES; Antibacterial peptide LL-37; UniProt P49913 134-170, looked up) | no clot formation; also recorded: did not form a strong clot; also recorded: No visible clot was observed | not to affect plasmatic coagulation
